Measured values published in US20210301038A1, “POLYSIALIC ACID AND DERIVATIVES THEREOF, PHARMACEUTICAL COMPOSITION AND METHOD OF PRODUCING POLYSIALIC ACID” (Medizinische Hochschule Hannover (MHH), priority 2018, published 2021).
Counter-ions that a name gives are not always drawn.

Assays:
[1] = system: layer II/III - layer V synapses in mPFC slices; experiment: TBS-induced LTP (fEPSP) in sham- and endoNF-treated mPFC slices from C57BL/6 mice; type: cell-based, mouse; conditions: endoNF-treated slices; Ro 25-6981 0.3 μM; DP12 1 μg/ml; DP5 1 or 10 μg/ml; sarcosine 0.75 mM; SSR 504734 3 μM
Description: (§1) For endoNF treatment in C57BL/6J mice, slices were first allowed to recover for 20 min at room temperature (22-24° C.) in recording aCSF and were then placed in a 24-well plate to be incubated in 2 ml of aCSF without (sham) or with addition of endoNF (10 μg/ml) at 35° C. for 2 hours. The 24-well plate was installed in a water bath (ED, Julabo, Seelbach, Germany). For field excitatory postsynaptic potential (fEPSP) recordings in knockout and transgenic mice, mPFC slices were incubated in recording aCSF for >2 hours at room temperature before recordings. For patch-clamp recordings in knockout mice, slices were incubated first at 35° C. for 20 min and then at room temperature for >30 min before recordings started. The aCSF was continuously gassed with 95% O2/5% CO2 during all incubation steps and recordings.
(§2) Prefrontal slices (400 μm) were transferred to a submerged-type recording MC membrane chamber (volume 2 ml; Scientific Systems Design Inc., Mississauga, Ontario, Canada) perfused with oxygenated recording ACSF at a flow rate of 4 ml/min and maintained at room temperature (22-25° C.), unless stated otherwise in the “Results”-section given below. Field EPSPs were evoked and recorded using thin-walled glass electrodes (borosilicate glass, wall thickness 0.188, length 100, and outer diameter 1.5 mm, Hilgenberg, Malsfeld, Germany) filled with recording aCSF in 400 μm-thick mPFC slices. In order to stimulate electrically the input fibers of pyramidal cells, the stimulation electrode (0.3-0.5 MΩ) was inserted into layers II/III of the prelimbic cortex. The recording electrode (2-2.5 MΩ) was placed in the vicinity of dendrites and cell bodies of pyramidal neurons in layer V (Huang et al., 2004).
(§3) Before LTP induction, basal synaptic transmission was recorded in each slice and the relationship between stimulus intensity and fEPSP slope was measured. Basal fEPSPs were evoked at 0.05 Hz for at least 10 min. The supramaximal slope was determined by gradually increasing the stimulation intensity until a population spike in the fEPSP became first visible. The stimulation intensity was adjusted to elicit a basal fEPSP with a slope of approximately 50% of the supramaximal value.
(§4) LTP was induced by application of five trains of theta-burst stimulation (TBS) with an inter-theta-train interval of 20 s (Brennaman et al., 2011). Each train consisted of 8 bursts delivered at 5 Hz. Each burst consisted of four pulses delivered at 100 Hz. Duration of pulses was 0.2 ms. For calculation of the LTP level, the mean fEPSP slope was measured between 50-60 min after TBS delivery, and it was then normalized to mean baseline fEPSP slope during 0-10 min before TBS. Stimulus artifacts in representative fEPSP examples in figures were blanked to facilitate the perception of fEPSPs recorded in the mPFC. Recording and analysis of LTP in St8Sia4^−/− mice was performed in a blind manner.
The enzyme endosialidase NF (endoNF) (Stummeyer et al., 2005) and the short form of polysialic acid composed of 10 or twelve sialic acid residues (DP10 and DP12) were purified as described previously (Keys et al., 2014). Sialic acid (N-acetylneuraminic acid, DP1) and the pentamer of sialic acid sodium salt (DP5) were obtained from EY Laboratories (San Mateo, Calif., USA). DMB-labelled DP2 and DP12, and non-labelled avDP10-9OAc were synthesized in the laboratory of Rita Gerardy-Schahn (see sections Synthesis of DMB-DP2 and DMB-DP12 and Synthesis of avDP10-9OAc, respectively). […]

[2] = system: mPFC slices from St8sia4−/− mice; experiment: TBS-induced LTP in mPFC slices from ST8SIA4-deficient mice and wild-type littermates; type: cell-based, mouse; conditions: Ro 25-6981 0.3 μM, DP12 1 μg/ml, sarcosine 0.75 mM
Description: as §1, §2, §3, §4

[3] = system: C57BL/6J mice with intra-mPFC endoNF injection; experiment: Novel object recognition test before and after intra-mPFC endoNF injection; type: in vivo, mouse
Description: Guide cannulas were fabricated using stainless steel tubing with outer/inner diameter Ø 0.711/0.483 mm (Science Products, Germany). Dummy cannulas were made from entomological pins, size 2, Ø 0.41 mm (FST, Germany). Chronic implantation of cannulas into the mPFC in mice was performed as described previously for intrahippocampal injections (Kochlamazashvili et al., 2012; Senkov et al., 2015; Senkov et al., 2006).
Acute injection of endoNF in vivo was done under a short isoflurane anesthesia. For intra-mPFC injection, we used a digitally controlled infusion system (UltraMicroPump, UMP3, and Micro4 Controller, WPI, USA) fed with a 10 μl-Hamilton syringe and NanoFil 135 μm (35 GA) beveled needle. The thin (135 μm) part of the needle went into the mouse brain during injection, whereas its thick part (430 μm) fit perfectly in the guide cannula (inside 483 μm). Injections were performed as follows: 1) a mouse was anesthetized with 1-3% isoflurane as during implantation; 2) it was put into the stereotaxic frame; 3) the dummy cannula was gently removed from the left guide cannula; 4) a NanoFil injecting needle was carefully placed inside of the guide cannula and advanced further down until reaching the marker (made with a permanent pen at the needle shank (430 μm) to visualize the point when the needle should reach the surface of the brain coming out of the guide cannula (equal to the length of guide cannula); 5) once the marker was reached, a slow (10 μm increment) step dial was used to deepen the needle into the brain; 6) endoNF (2 μg/μl) or vehicle was injected with the following settings: 250 nl per site as deep as 1.5 and 2.25 mm from the brain surface (total injection volume per hemisphere 500 nl, injection rate of 3 nl/s); 7) after injection was complete (˜5 min), the needle was left in the injection site for another 5 min and then gently removed; 8) the dummy cannula was then put back to its place; 9) the same procedure was performed for the right hemisphere. The whole injection process took approximately 20-25 min under isoflurane anesthesia, and the mice recovered rather quickly, starting to move in approximately 2-3 min after being returned to their home cages. Complete recovery of a mouse after such short anesthesia usually occurs within 3-5 min. After injection, mice were returned to their animal facility. Behavior experiments started on the day after injection at approximately the same time, so that we could perform cognitive tests 24 hours after injection.
A white open field arena (50×50×30 cm) was used in the novel object recognition task. All behavior was video recorded and analyzed automatically by software (ANY-maze, version 4.99, Stoelting Co., Wood Dale, Ill.). […]

[4] = system: NMDAR-EPSCs (GluN1/GluN2B receptors); experiment: Evoked NMDAR-EPSCs, whole-cell patch-clamp of layer V pyramidal neurons in sham- or endoNF-treated mPFC slices; type: cell-based, mouse; conditions: 0.1 μM, in the presence of 5-HT4 antagonist RS 39604 (10 μM)
Excerpt: Each mouse was quickly sacrificed by cervical dislocation. After decapitation, the brain was rapidly removed from the skull and placed in ice-cold artificial cerebrospinal fluid (aCSF) equilibrated with 95% O2/5% CO2, which was composed of the following (in mM): 250 sucrose, 24 NaHCO3, 25 glucose, 2.5 KCl, 1.25 NaH2PO4, 2 CaCl2, and 1.5 MgCl2 (osmolarity 345-350 mOsm/kg, pH 7.4). Using a VT1200S vibratome (Leica, Nussloch, Germany), coronal slices containing the prelimbic and infralimbic cortices (1.9-1.3 mm anterior to bregma) were cut 350 μm or 400 μm thick, for patch clamp and extracellular recordings, respectively, in the same sucrose-containing aCSF. Then, the slices were transferred to a slice holding chamber filled with recording aCSF (osmolarity 300-305 mOsm/kg, pH 7.4) that contained 120 mM NaCl instead of sucrose (Eckhardt et al., 2000) and was continuously gassed with 95% O2/5% CO2.
as §1
For whole-cell patch-clamp recordings, layer V pyramidal neurons were visualized using a SliceScope Pro 6000 equipped with a 40× water-immersion objective and infrared differential interference contrast microscopy (Scientifica, Uckfield, UK). Pyramidal cells were identified by their triangular soma and long apical dendrites, and synaptically evoked excitatory postsynaptic currents (EPSCs) were recorded using patch pipettes (3-5 MQ) fabricated using borosilicate glass capillaries (wall thickness 0.315, length 100, outer diameter 1.5 mm, Hilgenberg) and a DMZ-Zeitz puller (Zeitz Instruments GmbH, Martinsried, Germany). The intracellular pipette solution contained the following (in mM): 140.7 Cs-methane-sulfonate, 5 NaCl, 1 MgCl2, 0.2 EGTA, 10 HEPES, 3 ATP-Mg, 0.3 Na-GTP, and 3.1 QX-314 (osmolarity 295 mOsm/kg, adjusted to pH 7.2 with CsOH). EPSCs were evoked by electrical pulses (0.2 ms) at 0.033 Hz via a glass pipette placed in layer II/III of the mPFC (identically to fEPSPs). Mixed EPSCs showing a fast AMPAR-mediated component and a slow NMDAR-mediated component were recorded at a −60 mV holding potential in whole-cell voltage-clamp mode in normal aCSF. The stimulation intensity was adjusted to evoke mixed EPSCs with amplitudes of approximately 300 pA. The slow NMDAR-mediated component of EPSCs was pharmacologically isolated at −60 mV in modified aCSF containing low Mg^2+ (0.1 mM) and high Ca^2+ (3.2 mM, for adjustment of divalent cation concentrations), the selective antagonist of α-amino-3-hydroxy-5-methyl-4-isoxazolepropionic acid (AMPA)/kainate receptors NBQX (10 μM), and the selective antagonist of γ-aminobutyric acid (GABA)B receptors CGP-55845 (2 μM) (Chen et al., 2003). The washout of Mg^2+ required at least 25 min. Recordings at a holding potential near the resting membrane potential allowed us to obtain stable NMDAR-EPSC recordings from pyramidal cells lasting for 1-1.5 hours. Series resistance (Rs, range 10-25 MΩ) was compensated (20-30%) and monitored continuously. Neurons in which Rs changed by more than 20% throughout the experiment were not included in the analysis. In voltage-clamp mode, membrane potential was not corrected for liquid junction potential. […]

## O=C(N[C@@H](c1ccccc1)[C@@H]1CCCCN1)c1cccc(C(F)(F)F)c1Cl [SSR 504734, 2-chloro-N—[(S)-phenyl[(2S)-piperidin-2-yl]methyl]-3-trifluoromethyl benzamide]
[1]
  LTP level 50-60 min after TBS: rescued LTP

## CNCC(=O)O [sarcosine, N-methylglycine]
[2]; St8sia4+/+ mice
  LTP magnitude: no effect
[2]; St8sia4−/− mice
  LTP level 50-60 min after TBS: full restoration of LTP levels
[3]; 30 min before encoding, sarcosine 600 mg/kg i.p. (d2), DP12 (d5) and DP1 (d6) 1 mg/kg intranasally
  novel object recognition after intra-mPFC endoNF injection: fully alleviated
[3]; d-1, 600 mg/kg i.p. 30 min before the encoding phase
  novel object recognition before endoNF injection: normal object recognition
[1]
  LTP level 50-60 min after TBS: fully restored to sham levels

## [H]/N=C(/NCCCCC)N/N=C/c1c[nH]c2ccc(OC)cc12 [tegaserod, tegaserod maleate]
[4]; endoNF-treated slices
  inhibition of NMDAR-EPSC amplitude: ~30%
[4]; sham-treated slices
  inhibition of NMDAR-EPSC amplitude: ~50%
